# Experimental data reported in article PMC9343605, “Structural insights into ligand recognition and selectivity of somatostatin receptors” (Cell Research, 2022).
# Tests used:
# SSTR4 [1] = assay: Whole cell binding assay, SSTR4, competition with 125I-Tyr11-SST14, CHO-K1; design: species or system human; details: IC50(mutant)/IC50(WT)
# Method: (§1) For SSTR2 and SSTR4, CHO-K1 cells were cultured in F12 medium with 10% FBS and seeded at a density of 30,000 cells/well in Isoplate-96 plates (PerkinElmer). Twenty-four hours after transfection with the WT or mutant SSTR2/SSTR4, CHO-K1 cells were washed twice and incubated with blocking buffer (F12 supplemented with 25 mM HEPES and 0.1% (w/v) BSA, pH 7.4) for 2 h at 37 °C. […] Following incubation, cells were washed three times with ice-cold PBS and lysed by 50 μL lysis buffer (PBS supplemented with 20 mM Tris-HCl, 1% Triton X-100, pH 7.4). The radioactivity was subsequently counted (counts/min, CPM) in a scintillation counter (MicroBeta[2] Plate Counter, PerkinElmer) using a scintillation cocktail (OptiPhaseSuperMix, PerkinElmer). Data were analyzed by nonlinear regression using GraphPad PRISM 8.
# (§2) aMutants represent that all mutations were introduced separately into the WT receptors
# and expressed in CHO K1 cells.
# (§3) bThe IC50 ratio was shown as IC50(mutant)/IC50(WT), indicating the shift between the WT
# (§4) and mutant curves, reflecting the effect of the mutations on ligand binding.
# (§5) cData are shown as mean ± S.E.M. form at least three independent experiments
# (§6) performed in technical triplicate. One-way ANOVA was performed followed by
# (§7) Dunnett’s post-test and compared with WT.
# (§8) d The span is defined as the window between the maximal agonists response (Emax) and
# (§9) e Sample size; the number of independent experiments performed in technical triplicate.
# SSTR4 [2] = target: SSTR4 (Homo sapiens, UniProt P31391, N199A); assay: as above; design: expressed in transfected cells; details: SSTR4 mutant N199^ECL2A; mean ± SEM
# Method: as §1, §2
# and expressed in CHO K1 cells.
# as §3, §4, §5, §6, §7, §8, §9
# SSTR4 [3] = target: SSTR4 (Homo sapiens, UniProt P31391, Q279A); assay: as above; design: expressed in transfected cells; details: SSTR4 mutant Q279^6.55A; mean ± SEM
# Method: as §1, §2
# and expressed in CHO K1 cells.
# as §3, §4, §5, §6, §7, §8, §9
# SSTR4 [4] = target: SSTR4 (Homo sapiens, UniProt P31391, Y301A); assay: as above; design: expressed in transfected cells; details: SSTR4 mutant Y301^7.43A; mean ± SEM
# Method: as §1, §2
# and expressed in CHO K1 cells.
# as §3, §4, §5, §6, §7, §8, §9
# SSTR4 [5] = target: SSTR4 (Homo sapiens, UniProt P31391, D126A); assay: as above; design: expressed in transfected cells; details: SSTR4 mutant D126^3.32A; mean ± SEM
# Method: as §1, §2
# and expressed in CHO K1 cells.
# as §3, §4, §5, §6, §7, §8, §9
# SSTR4 [6] = target: SSTR4 (Homo sapiens, UniProt P31391); assay: as above; design: expressed in transfected cells; details: WT SSTR4, mean ± SEM
# Method: as §1, §2
# and expressed in CHO K1 cells.
# as §3, §4, §5, §6, §7, §8, §9
# SSTR4 [7] = target: SSTR4 (Homo sapiens, UniProt P31391, T215A); assay: as above; design: expressed in transfected cells; details: SSTR4 mutant T215^5.42A; mean ± SEM
# Method: as §1, §2
# and expressed in CHO K1 cells.
# as §3, §4, §5, §6, §7, §8, §9
# SSTR4 [8] = target: SSTR4 (Homo sapiens, UniProt P31391, Y276A); assay: as above; design: expressed in transfected cells; details: SSTR4 mutant Y276^6.52A; mean ± SEM
# Method: as §1, §2
# and expressed in CHO K1 cells.
# as §3, §4, §5, §6, §7, §8, §9
# SSTR4 [9] = target: SSTR4 (Homo sapiens, UniProt P31391, V264F); assay: as above; design: expressed in transfected cells; details: Construct 4 SSTR4, mean ± SEM
# Method: as §1, §2
# and expressed in CHO K1 cells.
# as §3, §4, §5, §6, §7, §8, §9
# SSTR4 [10] = target: SSTR4 (Homo sapiens, UniProt P31391, F275A); assay: as above; design: expressed in transfected cells; details: SSTR4 mutant F275^6.51A; mean ± SEM
# Method: as §1, §2
# and expressed in CHO K1 cells.
# as §3, §4, §5, §6, §7, §8, §9
# SSTR4 [11] = target: SSTR4 (Homo sapiens, UniProt P31391, M130A); assay: as above; design: expressed in transfected cells; details: SSTR4 mutant M130^3.36A; mean ± SEM
# Method: as §1, §2
# and expressed in CHO K1 cells.
# as §3, §4, §5, §6, §7, §8, §9
# SSTR2 [12] = assay: cAMP accumulation assay (agonist-induced inhibition of forskolin-stimulated cAMP), SSTR2, HEK293F; format: cell-based, human; details: EC50(mutant)/EC50(WT);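 note: transiently transfected cells exposed to 2 µM forskolin and a ligand concentration series for 40 min at room temperature in IBMX-containing HBSS, then cAMP quantified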
# Method: (§10) HEK293F cells were transiently transfected with WT or mutant SSTR2/SSTR4 using transfection reagent (PEI MAX 2000, Polysciences) and incubated at 37 °C in 5% CO2. Forty-eight hours after transfection, cells were centrifuged and resuspended in stimulation buffer (Hanks’ balanced salt solution (HBSS) supplemented with 5 mM HEPES, 0.5 mM IBMX and 0.1% (w/v) bovine serum albumin (BSA), pH 7.4) to a density of 200,000 cells/mL and added to 384-well white plates (PerkinElmer, 1000 cells/well). cAMP accumulation was measured by a LANCE Ultra cAMP kit (PerkinElmer) according to the manufacturer’s instructions. In brief, transfected cells were incubated for 40 min in stimulation buffer with 2.5 μL forskolin (SSTR2: 2 μM; SSTR4: 4 μM) and gradient concentration of ligand at RT. The reactions were stopped by addition of lysis buffer containing 5 μL Eu-cAMP tracer and 5 μL ULight-anti-cAMP. Plates were then incubated for 60 min at RT and time-resolved FRET signals were measured at 620 nm and 665 nm by an EnVision multilabel plate reader (PerkinElmer). Data were analyzed in GraphPad PRISM 8 and all values were normalized to the WT for each ligand. All outcomes were repeated at least three times.
# (§11) aMutants represent that mutations were introduced separately into the WT receptors and
# (§12) transiently expressed in HEK 293F cells.
# (§13) bThe EC50 ratio was shown as EC50(mutant)/EC50(WT), indicating the shift between the WT
# (§14) and mutant curves, reflecting the effect of the mutations on receptor signaling.
# (§15) cData are shown as mean ± S.E.M. from at least three independent experiments
# as §6
# (§16) Dunnett’s post-test and compared with WT. The P value was defined as: *P<0.05;
# as §8, §9
# (§17) f Receptor expression level of HEK 293F cells was determined independently by flow
# (§18) cytometry with anti-FLAG antibody and shown as per cent compared to the WT.
# SSTR2 [13] = target: T1, SSTR2 (Homo sapiens, UniProt P30874, P286A); assay: as above; format: cell-based; details: SSTR2 mutant P286^ECL3A; mean ± SEM
# T1 construct: expressed in transfected cells; host or cells: HEK293F
# Method: as §10, §11, §12, §13, §14, §15, §6, §16, §8, §9, §17, §18
# SSTR2 [14] = target: T2, SSTR2 (Homo sapiens, UniProt P30874, F208A); assay: as above; format: cell-based; details: SSTR2 mutant F208^5.38A; mean ± SEM
# T2 construct: expressed in transfected cells; host or cells: HEK293F
# Method: as §10, §11, §12, §13, §14, §15, §6, §16, §8, §9, §17, §18
# SSTR2 [15] = target: T3, SSTR2 (Homo sapiens, UniProt P30874, S316D/V106E); assay: as above; format: cell-based; details: Construct 2* SSTR2; mean ± SEM
# T3 construct: expressed in transfected cells; host or cells: HEK293F
# Method: as §10, §11, §12, §13, §14, §15, §6, §16, §8, §9, §17, §18
# SSTR2 [16] = target: T4, SSTR2 (Homo sapiens, UniProt P30874, N276A); assay: as above; format: cell-based; details: SSTR2 mutant N276^6.55A; mean ± SEM
# T4 construct: expressed in transfected cells; host or cells: HEK293F
# Method: as §10, §11, §12, §13, §14, §15, §6, §16, §8, §9, §17, §18
# SSTR2 [17] = target: T5, SSTR2 (Homo sapiens, UniProt P30874, K291A); assay: as above; format: cell-based; details: SSTR2 mutant K291^7.32A; mean ± SEM
# T5 construct: expressed in transfected cells; host or cells: HEK293F
# Method: as §10, §11, §12, §13, §14, §15, §6, §16, §8, §9, §17, §18
# SSTR2 [18] = target: T6, SSTR2 (Homo sapiens, UniProt P30874, V298A); assay: as above; format: cell-based; details: SSTR2 mutant V298^7.39A; mean ± SEM
# T6 construct: expressed in transfected cells; host or cells: HEK293F
# Method: as §10, §11, §12, §13, §14, §15, §6, §16, §8, §9, §17, §18
# SSTR2 [19] = target: T7, SSTR2 (Homo sapiens, UniProt P30874, I284A); assay: as above; format: cell-based; details: SSTR2 mutant I284^ECL3A; mean ± SEM
# T7 construct: expressed in transfected cells; host or cells: HEK293F
# Method: as §10, §11, §12, §13, §14, §15, §6, §16, §8, §9, §17, §18
# SSTR2 [20] = details: cited from earlier work
# SSTR2 [21] = target: SSTR2 (Homo sapiens, UniProt P30874, T212A); assay: Whole cell binding assay, SSTR2, competition with 125I-Tyr11-SST14, CHO-K1; details: SSTR2 mutant T212^5.42A; mean ± SEM;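 note: Cell-bound radioactivity in lysed CHO-K1 cells read by scintillation counting, each mutation introduced singly into the WT receptor, at least three independent experiments run in technical triplicate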
# Method: as §1, §2
# and expressed in CHO K1 cells.
# as §3, §4, §5, §6, §7, §8, §9
# SSTR2 [22] = target: SSTR2 (Homo sapiens, UniProt P30874, F275A); assay: as above; details: SSTR2 mutant F275^6.54A; mean ± SEM
# Method: as §1, §2
# and expressed in CHO K1 cells.
# as §3, §4, §5, §6, §7, §8, §9
# SSTR2 [23] = target: SSTR2 (Homo sapiens, UniProt P30874, F272A); assay: as above; details: SSTR2 mutant F272^6.51A; mean ± SEM
# Sequence of SSTR2 (Homo sapiens, UniProt P30874, F272A) (P30874 whole entry F272A): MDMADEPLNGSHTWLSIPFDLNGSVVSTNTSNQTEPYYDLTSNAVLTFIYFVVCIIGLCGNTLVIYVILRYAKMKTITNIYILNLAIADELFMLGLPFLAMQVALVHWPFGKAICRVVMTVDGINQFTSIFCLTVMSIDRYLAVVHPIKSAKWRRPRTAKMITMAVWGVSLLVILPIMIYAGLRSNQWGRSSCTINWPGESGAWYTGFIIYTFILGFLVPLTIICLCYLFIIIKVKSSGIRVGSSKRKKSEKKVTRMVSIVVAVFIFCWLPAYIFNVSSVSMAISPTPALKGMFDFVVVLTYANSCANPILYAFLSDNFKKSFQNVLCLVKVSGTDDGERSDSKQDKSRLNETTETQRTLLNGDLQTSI
# Method: as §1, §2
# and expressed in CHO K1 cells.
# as §3, §4, §5, §6, §7, §8, §9
# Sequence of SSTR4 (Homo sapiens, UniProt P31391) (P31391 whole entry): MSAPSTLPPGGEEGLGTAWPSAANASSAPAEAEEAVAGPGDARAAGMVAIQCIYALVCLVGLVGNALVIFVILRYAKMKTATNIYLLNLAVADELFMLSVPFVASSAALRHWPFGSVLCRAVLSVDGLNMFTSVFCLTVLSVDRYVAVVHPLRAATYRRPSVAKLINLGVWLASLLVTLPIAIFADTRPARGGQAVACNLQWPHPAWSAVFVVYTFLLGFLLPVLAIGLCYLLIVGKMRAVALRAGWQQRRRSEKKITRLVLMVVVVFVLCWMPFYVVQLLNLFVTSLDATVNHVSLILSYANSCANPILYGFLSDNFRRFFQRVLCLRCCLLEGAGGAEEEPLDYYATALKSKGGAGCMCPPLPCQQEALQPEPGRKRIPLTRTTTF
# Sequence of SSTR4 (Homo sapiens, UniProt P31391, V264F) (P31391 1-328 V264F): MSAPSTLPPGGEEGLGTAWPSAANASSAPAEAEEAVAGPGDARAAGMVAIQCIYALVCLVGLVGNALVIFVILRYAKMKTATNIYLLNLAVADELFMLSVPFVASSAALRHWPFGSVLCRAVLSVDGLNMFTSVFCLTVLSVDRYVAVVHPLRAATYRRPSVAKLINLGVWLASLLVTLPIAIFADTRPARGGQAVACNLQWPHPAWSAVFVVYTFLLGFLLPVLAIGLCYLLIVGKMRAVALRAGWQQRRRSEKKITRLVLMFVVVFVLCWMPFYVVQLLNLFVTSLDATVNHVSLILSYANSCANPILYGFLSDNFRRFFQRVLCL
# T2 sequence (P30874 whole entry F208A): as the sequence (P30874 whole entry F272A) above, with F208A, A272F counted along it
# Sequence of SSTR4 (Homo sapiens, UniProt P31391, Q279A) (P31391 whole entry Q279A): as the sequence (P31391 whole entry) above, with Q279A counted along it
# Sequence of SSTR2 (Homo sapiens, UniProt P30874, T212A) (P30874 whole entry T212A): as the sequence (P30874 whole entry F272A) above, with T212A, A272F counted along it
# T4 sequence (P30874 whole entry N276A): as the sequence (P30874 whole entry F272A) above, with A272F, N276A counted along it
# T1 sequence (P30874 whole entry P286A): as the sequence (P30874 whole entry F272A) above, with A272F, P286A counted along it
# T3 sequence (P30874 1-359 V106E/S316D): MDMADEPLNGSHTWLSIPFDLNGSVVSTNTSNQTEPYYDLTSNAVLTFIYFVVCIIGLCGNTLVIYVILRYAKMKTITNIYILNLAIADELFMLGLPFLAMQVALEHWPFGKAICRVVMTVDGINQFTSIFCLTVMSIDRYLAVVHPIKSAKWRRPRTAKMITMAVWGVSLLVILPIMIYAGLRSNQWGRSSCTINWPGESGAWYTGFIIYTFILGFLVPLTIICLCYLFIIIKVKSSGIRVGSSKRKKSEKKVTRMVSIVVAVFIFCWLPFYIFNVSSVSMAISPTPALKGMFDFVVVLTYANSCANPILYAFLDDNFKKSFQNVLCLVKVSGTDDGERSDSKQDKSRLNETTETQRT
# Sequence of SSTR2 (Homo sapiens, UniProt P30874, F275A) (P30874 whole entry F275A): as the sequence (P30874 whole entry F272A) above, with A272F, F275A counted along it
# T6 sequence (P30874 whole entry V298A): as the sequence (P30874 whole entry F272A) above, with A272F, V298A counted along it
# Sequence of SSTR4 (Homo sapiens, UniProt P31391, T215A) (P31391 whole entry T215A): as the sequence (P31391 whole entry) above, with T215A counted along it
# T7 sequence (P30874 whole entry I284A): as the sequence (P30874 whole entry F272A) above, with A272F, I284A counted along it
# Sequence of SSTR4 (Homo sapiens, UniProt P31391, F275A) (P31391 whole entry F275A): as the sequence (P31391 whole entry) above, with F275A counted along it
# T5 sequence (P30874 whole entry K291A): as the sequence (P30874 whole entry F272A) above, with A272F, K291A counted along it
# Sequence of SSTR4 (Homo sapiens, UniProt P31391, D126A) (P31391 whole entry D126A): as the sequence (P31391 whole entry) above, with D126A counted along it
# Sequence of SSTR4 (Homo sapiens, UniProt P31391, N199A) (P31391 whole entry N199A): as the sequence (P31391 whole entry) above, with N199A counted along it
# Sequence of SSTR4 (Homo sapiens, UniProt P31391, M130A) (P31391 whole entry M130A): as the sequence (P31391 whole entry) above, with M130A counted along it
# Sequence of SSTR4 (Homo sapiens, UniProt P31391, Y276A) (P31391 whole entry Y276A): as the sequence (P31391 whole entry) above, with Y276A counted along it
# Sequence of SSTR4 (Homo sapiens, UniProt P31391, Y301A) (P31391 whole entry Y301A): as the sequence (P31391 whole entry) above, with Y301A counted along it
smiles,measurement,setting,value
Cc1ccc(S(=O)(=O)N[C@@H](CCN)C(=O)N[C@@H](Cc2ccccc2)C(N)=O)c2ccccc12 [J-2156],IC50 ratio,SSTR4 [1]; Construct 4 SSTR4,0.5
same,IC50 ratio,SSTR4 [1]; SSTR4 mutant Q279^6.55A,2
same,IC50 ratio,SSTR4 [1]; SSTR4 mutant T215^5.42A,1
same,IC50 ratio,SSTR4 [1]; WT SSTR4,1
same,Span,SSTR4 [2],13±3 % of WT
same,Span,SSTR4 [3],26±4 % of WT
same,pIC50 ± SEM,SSTR4 [3],8.93±0.38
same,Span,SSTR4 [4],15±5 % of WT
same,Span,SSTR4 [5],12±3 % of WT
same,pKi ± SEM,SSTR4 [6]; competition with 125I-SST-14,9.21 ± 0.14
same,Span,SSTR4 [6],100±6 % of WT
same,pIC50 ± SEM,SSTR4 [6]; at least three independent experiments,9.21±0.14
same,Span,SSTR4 [7],67±4 % of WT
same,pIC50 ± SEM,SSTR4 [7],9.08±0.16
same,Span,SSTR4 [8],9±3 % of WT
same,pKi ± SEM,SSTR4 [9]; competition with 125I-SST-14,9.47
same,Span,SSTR4 [9],96±9 % of WT
same,pIC50 ± SEM,SSTR4 [9],9.47±0.25
same,Span,SSTR4 [10],11 ± 4 % of WT
same,Span,SSTR4 [11],12±4 % of WT
"C[C@@H](c1c[nH]c2ccccc12)[C@@H](NC(=O)N1CCC(n2c(=O)[nH]c3ccccc32)CC1)C(=O)N[C@@H](CCCCN)C(=O)OC(C)(C)C [L-054,522]",EC50 ratio,SSTR2 [12]; Construct 2* SSTR2,2
same,EC50 ratio,SSTR2 [12]; SSTR2 mutant D122^3.32A,191
same,EC50 ratio,SSTR2 [12]; SSTR2 mutant F208^5.38A,2
same,EC50 ratio,SSTR2 [12]; SSTR2 mutant F272^6.51A,64
same,EC50 ratio,SSTR2 [12]; SSTR2 mutant F275^6.54A,5
same,EC50 ratio,SSTR2 [12]; SSTR2 mutant F294^7.35A,20
same,EC50 ratio,SSTR2 [12]; SSTR2 mutant I284^ECL3A,4
same,EC50 ratio,SSTR2 [12]; SSTR2 mutant K291^7.32A,4
same,EC50 ratio,SSTR2 [12]; SSTR2 mutant N276^6.55A,15
same,EC50 ratio,SSTR2 [12]; SSTR2 mutant P286^ECL3A,7
same,EC50 ratio,SSTR2 [12]; SSTR2 mutant Q102^2.63A,2
same,EC50 ratio,SSTR2 [12]; SSTR2 mutant Q126^3.36A,3
same,EC50 ratio,SSTR2 [12]; SSTR2 mutant T194^ECL2A,3
same,EC50 ratio,SSTR2 [12]; SSTR2 mutant T212^5.42A,5
same,EC50 ratio,SSTR2 [12]; SSTR2 mutant V298^7.39A,10
same,EC50 ratio,SSTR2 [12]; SSTR2 mutant Y205^5.35A,0.05
same,EC50 ratio,SSTR2 [12]; SSTR2 mutant Y302^7.43A,10
same,Span,SSTR2 [13],96±7 % of WT
same,pEC50 ± SEM,SSTR2 [13],8.83±0.18
same,Span,SSTR2 [14],81±5 % of WT
same,pEC50 ± SEM,SSTR2 [14],9.34±0.13
same,Span,SSTR2 [15],76±6 % of WT
same,pEC50 ± SEM,SSTR2 [15],9.28±0.17
same,Span,SSTR2 [16],80±5 % of WT
same,pEC50 ± SEM,SSTR2 [16],8.47±0.15
same,pEC50 ± SEM,SSTR2 [17],9.02±0.12
same,Span,SSTR2 [18],131±9 % of WT
same,pEC50 ± SEM,SSTR2 [18],8.68±0.16
same,Span,SSTR2 [19],84±7 % of WT
same,pEC50 ± SEM,SSTR2 [19],9.07±0.22
same,selectivity for SSTR2,SSTR2 [20],at least 3000 fold
same,Span,SSTR2 [21],94±5 % of WT
same,pIC50 ± SEM,SSTR2 [21],8.49±0.11
same,Span,SSTR2 [22],33±3 % of WT
same,pIC50 ± SEM,SSTR2 [22],7.57±0.23
same,Span,SSTR2 [23],13±3 % of WT
